Experiments:
[1] = biological target: human D3 receptor (Homo sapiens, UniProt P35462); experiment: Radioligand binding to cloned human D3 receptor expressed in HEK-293 EBNA cells ([3H]-spiperone)
Procedure: (§1) HEK293 EBNA cells were transiently transfected with expression plasmids encoding for the human D2 or D3 or for the human 5-HT2A receptor, respectively. The cells were harvested 48 h post-transfection, washed three times with cold PBS and stored at −80° C. prior to use. The pellet was suspended in cold 50 mM Tris-HCl buffer comprising 10 mM EDTA (pH 7.4) and was homogenized with a Polytron (Kinematica A G, Basel, Switzerland) for 20-30 sec at 12.000 rpm. After centrifugation at 48.000×g for 30 min at 4° C., the pellet was resuspended in cold 10 mM Tris-HCl buffer comprising 0.1 mM EDTA (pH 7.4), homogenized, and centrifuged as above. This pellet was further resuspended in a smaller volume of ice cold 10 mM Tris-HCl buffer comprising 0.1 mM EDTA (pH 7.4) and homogenized with a Polytron for 20-30 sec at 12.000 rpm. The protein content of this homogenate was determined with the Bio-Rad (Bradford) Protein Assay (Biorad Laboratories GmbH, München, Germany) according to the instructions of the manufacturer using gamma globulin as the standard. This homogenate was stored at −80° C. in aliquots and thawed immediately prior to use.
(§2) Aliquots of membrane preparations were thawed at RT, resupended in assay buffer (D2, D3: 50 mM Tris-HCl, 120 mM NaCl, 5 mM MgCl2, 1 mM EDTA, 5 mM KCl, 1.5 mM CaCl2, pH=7.4; 5-HT2A: 50 mM Tris-HCl, 10 mM MgCl2, 1 mM EGTA, pH=7.4), homogenized with a Polytron for 20-30 sec at 12.000 rpm and adjusted to a final concentration of approximately 7.5 μg protein/well (D2, D3) and 15 μg protein/well (5-HT2A), respectively.
(§3) The binding affinity (Ki) of the compounds was determined using radioligand binding. Membranes were incubated in a total volume of 200 μl with a fixed concentration of radioligand (final concentration approximately 0.7 nM [^3H]-spiperone for D2, 0.5 nM [^3H]-spiperone for D3, and 1.1 nM [^3H]-ketanserin for 5-HT2A) and ten concentrations of test compound in ranging between 10 μM-0.1 nM for 1 h at RT. At the end of the incubation, the reaction mixtures were filtered on to unifilter 96-well white microplates with bonded GF/C filters (Packard BioScience, Zürich, Switzerland; preincubated for 1 h in 0.1% polyethylenimine (PEI) in assay buffer) with a Filtermate 196 harvester (Packard BioScience) and washed 3 times with cold assay buffer. The nonspecific binding was determined with equally composed reaction mixtures in the presence of 10 μM unlabelled spiperone. Per well 45 μl of Microscint 40 (Perkin Elmer, Schwerzenbach, Switzerland) was added, plates for sealed, shaken for 20 min and counted for 3 min on a Topcount Microplate Scintillation Counter (Can berra Packard S A, Zürich, Switzerland) with quenching correction.
(§4) The CPM value for each duplicate of a concentration of competing compound was averaged (y1), then the % specific binding was calculated according to the equation (((y1−non-specific)/(total binding−non-specific))×100). Graphs were plotted with the % specific binding using XLfit, a curve fitting program that iteratively plots the data using Levenberg-Marquardt algorithm. The single site competition analysis equation used was y=A+((B−A)/(1+((x/C)D))), where y is the % specific binding, A is the minimum y, B is the maximum y, C is the IC50, x is the log 10 of the concentration of the competing compound and D is the slope of the curve (the Hill Coefficient). […] The affinity constant (Ki) was calculated using the Cheng-Prusoff equation Ki=(IC50/1+([L]/Kd), where [L] is the concentration of radioligand and Kd is the dissociation constant of the radioligand at the receptor as determined by the saturation isotherm.

[2] = biological target: T1, human D2 receptor (Homo sapiens, UniProt P14416); experiment: Radioligand binding to cloned human D2 receptor expressed in HEK-293 EBNA cells ([3H]-spiperone); conditions: HEK293 EBNA cell membranes, approximately 0.7 nM [3H]-spiperone, 1 h at RT
T1 construct: expressed in transfected cells; host or cells: HEK293 EBNA cells, transient transfection; membrane preparation
Procedure: as §1, §2, §3, §4

[3] = biological target: human 5-HT2A receptor (Homo sapiens, UniProt P28223); experiment: Radioligand binding to cloned human 5-HT2A receptor expressed in HEK-293 EBNA cells ([3H]-ketanserin)
Chain of human 5-HT2A receptor (P28223 whole entry): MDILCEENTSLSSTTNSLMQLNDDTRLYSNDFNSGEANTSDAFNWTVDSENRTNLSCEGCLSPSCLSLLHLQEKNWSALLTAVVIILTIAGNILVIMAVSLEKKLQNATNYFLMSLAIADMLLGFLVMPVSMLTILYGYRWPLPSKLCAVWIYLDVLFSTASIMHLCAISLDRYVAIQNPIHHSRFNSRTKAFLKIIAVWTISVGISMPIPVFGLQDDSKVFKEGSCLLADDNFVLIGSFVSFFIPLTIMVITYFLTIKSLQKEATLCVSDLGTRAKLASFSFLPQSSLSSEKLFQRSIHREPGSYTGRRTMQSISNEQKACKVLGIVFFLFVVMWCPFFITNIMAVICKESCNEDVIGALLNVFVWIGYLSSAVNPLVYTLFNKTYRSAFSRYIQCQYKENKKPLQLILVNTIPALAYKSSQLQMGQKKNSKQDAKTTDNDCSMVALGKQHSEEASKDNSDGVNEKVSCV

T1 sequence (P14416 whole entry): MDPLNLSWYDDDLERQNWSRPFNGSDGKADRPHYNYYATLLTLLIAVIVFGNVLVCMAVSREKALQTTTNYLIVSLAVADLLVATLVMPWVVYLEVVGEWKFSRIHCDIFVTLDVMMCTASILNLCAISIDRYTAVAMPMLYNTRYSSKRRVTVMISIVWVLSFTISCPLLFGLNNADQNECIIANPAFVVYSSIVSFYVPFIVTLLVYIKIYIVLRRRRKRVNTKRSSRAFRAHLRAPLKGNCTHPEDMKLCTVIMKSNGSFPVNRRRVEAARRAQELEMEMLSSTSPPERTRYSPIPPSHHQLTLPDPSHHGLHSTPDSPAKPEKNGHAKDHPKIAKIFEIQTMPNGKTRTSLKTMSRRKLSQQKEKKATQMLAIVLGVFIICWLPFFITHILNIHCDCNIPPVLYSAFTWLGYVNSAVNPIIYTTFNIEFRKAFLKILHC
Chain of human D3 receptor (P35462 whole entry): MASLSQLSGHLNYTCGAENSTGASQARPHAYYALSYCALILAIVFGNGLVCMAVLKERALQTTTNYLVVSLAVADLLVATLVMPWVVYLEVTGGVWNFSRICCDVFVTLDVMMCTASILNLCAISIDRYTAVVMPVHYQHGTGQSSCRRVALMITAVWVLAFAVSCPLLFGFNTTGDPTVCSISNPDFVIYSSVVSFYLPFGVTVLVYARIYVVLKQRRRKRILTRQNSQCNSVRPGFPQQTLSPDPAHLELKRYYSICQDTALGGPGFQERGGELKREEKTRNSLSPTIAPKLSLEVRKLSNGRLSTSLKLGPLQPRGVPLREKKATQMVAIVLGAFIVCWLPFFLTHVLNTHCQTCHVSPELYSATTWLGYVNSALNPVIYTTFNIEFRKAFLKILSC

SMILES	Ki [1] [nM]	Ki [2] [nM]	melting point [°C]	Ki [3] [nM]
O=S(=O)(N[C@H]1CC[C@H](CCN2CCN(c3nccc4c3OCC4)CC2)CC1)c1ccccc1 [Example 99, trans-N-(4-{2-[4-(2,3-Dihydro-furo[2,3-c]pyridin-7-yl)-piperazin-1-yl]-ethyl}-cyclohexyl)-benzenesulfonamide]	6	233	122.5	151
CO[C@H](C)C(=O)N[C@H]1CC[C@H](CCN2CCN(c3nccc4c3OCC4)CC2)CC1 [Example 100, trans-(R)—N-(4-{2-[4-(2,3-Dihydro-furo[2,3-c]pyridin-7-yl)-piperazin-1-yl]-ethyl}-cyclohexyl)-2-methoxy-propionamide]	30.9	714	170.5	22.9
O=C(CC1(O)CCC1)N[C@H]1CC[C@H](CCN2CCN(c3nccc4c3OCC4)CC2)CC1 [Example 102, trans-N-(4-{2-[4-(2,3-Dihydro-furo[2,3-c]pyridin-7-yl)-piperazin-1-yl]-ethyl}-cyclohexyl)-2-(1-hydroxy-cyclobutyl)-acetamide]	11.8	478	155	50.6
CC[C@@H](O)CC(=O)N[C@H]1CC[C@H](CCN2CCN(c3nccc4c3OCC4)CC2)CC1 [Example 103, (R)-3-Hydroxy-pentanoic acid trans-(4-{2-[4-(2,3-dihydro-furo[2,3-c]pyridin-7-yl)-piperazin-1-yl]-ethyl}-cyclohexyl)-amide]	20.1	874	146	113
